Experimental data: ChEMBL document CHEMBL4477259, “Discovery and structure-activity relationships of a novel isothiazolone class of bacterial type II topoisomerase inhibitors” (Bioorg Med Chem Lett, 2016)
In brackets after ≈: the same amount, converted by molar mass. Blank lines part the entries; values can stand above or below the compound they belong to.

Tests used:
Pseudomonas aeruginosa = test: Antibacterial activity against Pseudomonas aeruginosa ATCC 27853; format: functional
Klebsiella pneumoniae = test: Antibacterial activity against Klebsiella pneumoniae ATCC 700603; format: functional
Staphylococcus aureus = test: Antibacterial activity against Staphylococcus aureus ATCC 29213; format: functional
Escherichia coli [1] = test: Antibacterial activity against Escherichia coli N43; format: functional
Acinetobacter baumannii = test: Antibacterial activity against Acinetobacter baumannii NCTC 13420; format: functional
Escherichia coli [2] = test: Antibacterial activity against Escherichia coli W4573; format: functional
Escherichia coli [3] = test: Selectivity ratio of MIC for Escherichia coli LM367 harboring delta marR/delta acrR double mutant to MIC for wild type Escherichia coli LM179; format: functional
Escherichia coli [4] = test: Antibacterial activity against wild type Escherichia coli LM179; format: functional
Escherichia coli [5] = test: Selectivity ratio of MIC for Escherichia coli LM705 harboring GyrA S83L/D87N double mutant/ParC S80I mutant/delta marR/delta acrR double mutant to MIC for wild type Escherichia coli LM179; format: functional
Escherichia coli [6] = test: Antibacterial activity against Escherichia coli LM625 harboring GyrA S83L/D87N double mutant; format: functional
Escherichia coli [7] = test: Antibacterial activity against Escherichia coli CH440 harboring GyrA S83L/D87N double mutant/ParC S80I E84V double mutant/aac(6')-lb-cr; format: functional
Escherichia coli [8] = test: Selectivity ratio of MIC for Escherichia coli LM625 harboring GyrA S83L/D87N double mutant to MIC for wild type Escherichia coli LM179; format: functional
Escherichia coli [9] = test: Selectivity ratio of MIC for Escherichia coli CH418 harboring GyrA S83L/D87N double mutant/ParC S80I E84G double mutant/qnrA to MIC for wild type Escherichia coli LM179; format: functional
Escherichia coli [10] = test: Antibacterial activity against Escherichia coli CH418 harboring GyrA S83L/D87N double mutant/ParC S80I E84G double mutant/qnrA; format: functional
Escherichia coli [11] = test: Selectivity ratio of MIC for Escherichia coli CH440 harboring GyrA S83L/D87N double mutant/ParC S80I E84V double mutant/aac(6')-lb-cr to MIC for wild type Escherichia coli LM179; format: functional
Escherichia coli [12] = test: Antibacterial activity against Escherichia coli LM693 harboring GyrA S83L/D87N double mutant/ParC S80I mutant; format: functional
Escherichia coli [13] = test: Selectivity ratio of MIC for Escherichia coli LM693 harboring GyrA S83L/D87N double mutant/ParC S80I mutant to MIC for wild type Escherichia coli LM179; format: functional
Escherichia coli [14] = test: Antibacterial activity against Escherichia coli CH460 harboring GyrA S83L/D87N double mutant/ParC S80I E84V double mutant/qepA; format: functional
Escherichia coli [15] = test: Antibacterial activity against Escherichia coli CH448 harboring GyrA S83L mutant/qnrS; format: functional
Escherichia coli [16] = test: Antibacterial activity against Escherichia coli LM705 harboring GyrA S83L/D87N double mutant/ParC S80I mutant/delta marR/delta acrR double mutant; format: functional
Escherichia coli [17] = test: Antibacterial activity against Escherichia coli LM367 harboring delta marR/delta acrR double mutant; format: functional
Escherichia coli [18] = test: Selectivity ratio of MIC for Escherichia coli CH460 harboring GyrA S83L/D87N double mutant/ParC S80I E84V double mutant/qepA to MIC for wild type Escherichia coli LM179; format: functional
Escherichia coli [19] = test: Selectivity ratio of MIC for Escherichia coli CH448 harboring GyrA S83L mutant/qnrS to MIC for wild type Escherichia coli LM179; format: functional
[20] = biological target: Voltage-gated inwardly rectifying potassium channel KCNH2 (Homo sapiens, UniProt Q12809); test: Inhibition of human ERG channel by automated patch clamp assay
Voltage-gated inwardly rectifying potassium channel KCNH2, sequence (Q12809 whole entry): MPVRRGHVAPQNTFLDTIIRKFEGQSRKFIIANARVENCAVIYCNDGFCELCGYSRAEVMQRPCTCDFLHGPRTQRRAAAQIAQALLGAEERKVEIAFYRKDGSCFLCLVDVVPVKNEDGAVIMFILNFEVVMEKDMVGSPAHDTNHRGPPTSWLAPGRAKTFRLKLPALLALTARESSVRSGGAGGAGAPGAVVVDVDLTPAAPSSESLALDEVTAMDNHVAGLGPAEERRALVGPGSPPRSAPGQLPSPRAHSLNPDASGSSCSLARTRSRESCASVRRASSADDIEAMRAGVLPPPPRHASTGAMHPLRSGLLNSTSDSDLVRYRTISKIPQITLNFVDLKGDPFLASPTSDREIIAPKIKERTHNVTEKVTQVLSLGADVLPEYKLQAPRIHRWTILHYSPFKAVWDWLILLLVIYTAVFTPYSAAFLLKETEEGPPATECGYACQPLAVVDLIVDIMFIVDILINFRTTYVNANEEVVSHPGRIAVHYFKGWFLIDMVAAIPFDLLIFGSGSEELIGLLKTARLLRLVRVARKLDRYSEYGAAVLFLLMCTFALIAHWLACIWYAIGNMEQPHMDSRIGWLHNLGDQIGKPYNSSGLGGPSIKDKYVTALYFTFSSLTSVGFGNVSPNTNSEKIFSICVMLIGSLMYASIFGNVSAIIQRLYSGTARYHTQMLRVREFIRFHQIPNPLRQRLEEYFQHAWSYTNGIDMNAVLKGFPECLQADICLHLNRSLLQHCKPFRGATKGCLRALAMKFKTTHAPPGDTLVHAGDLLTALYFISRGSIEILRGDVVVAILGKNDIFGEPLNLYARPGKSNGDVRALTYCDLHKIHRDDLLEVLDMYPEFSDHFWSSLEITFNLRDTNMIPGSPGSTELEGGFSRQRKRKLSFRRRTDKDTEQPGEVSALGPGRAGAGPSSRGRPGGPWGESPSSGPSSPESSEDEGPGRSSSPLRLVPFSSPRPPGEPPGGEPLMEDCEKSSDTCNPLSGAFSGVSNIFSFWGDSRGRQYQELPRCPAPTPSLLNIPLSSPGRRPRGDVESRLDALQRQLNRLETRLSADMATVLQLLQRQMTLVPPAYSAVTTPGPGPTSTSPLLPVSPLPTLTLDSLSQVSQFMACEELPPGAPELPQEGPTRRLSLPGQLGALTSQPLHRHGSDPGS

[21] = n-octanol/phosphate buffer partition coefficient, log D of compound at pH 7.4 by shake-flask assay; format: physicochemical
HepG2 = test: Cytotoxicity against human HepG2 cells after 24 hrs by cell titre-glo assay; format: cell-based; conditions: HepG2, 24 h
hERG (KCNH2) = hERG (KCNH2) (Homo sapiens, UniProt Q12809); test: Inhibition of human ERG channel at 100 uM by automated patch clamp assay
hERG (KCNH2), sequence (Q12809 whole entry): as above

MIC (Pseudomonas aeruginosa): 0.06 µg/mL (≈ 0.168 µM) | MIC (Klebsiella pneumoniae): 4 µg/mL (≈ 11.2 µM) | MIC (Staphylococcus aureus): 0.12 µg/mL (≈ 0.337 µM) | MIC (Escherichia coli [1]): ≤ 0.0001 µg/mL | MIC (Acinetobacter baumannii): 64 µg/mL (≈ 180 µM) | MIC (Escherichia coli [2]): 0.002 µg/mL (≈ 0.00561 µM)
Compound: CCc1c(-c2ccc(N3CCC(N)C3)cc2)[nH]c(=O)c2c(=O)[nH]sc12 (centres undefined)

MIC (Pseudomonas aeruginosa): > 128 µg/mL | MIC (Klebsiella pneumoniae): > 128 µg/mL | MIC (Staphylococcus aureus): 32 µg/mL (≈ 83.2 µM) | MIC (Escherichia coli [1]): 8 µg/mL (≈ 20.8 µM) | MIC (Acinetobacter baumannii): 64 µg/mL (≈ 166 µM) | MIC (Escherichia coli [2]): > 64 µg/mL
Compound: CCc1c(-c2cccc(N3CCC(N(C)C)C3)c2)[nH]c(=O)c2c(=O)[nH]sc12 (centres undefined)

MIC (Pseudomonas aeruginosa): > 128 µg/mL | MIC (Klebsiella pneumoniae): 128 µg/mL (≈ 417 µM) | MIC (Staphylococcus aureus): 8 µg/mL (≈ 26.1 µM) | MIC (Escherichia coli [1]): 0.25 µg/mL (≈ 0.815 µM) | MIC (Acinetobacter baumannii): 16 µg/mL (≈ 52.2 µM) | MIC (Escherichia coli [2]): 16 µg/mL (≈ 52.2 µM)
Compound: CCc1c(-c2ccc(Cl)cc2)[nH]c(=O)c2c(=O)[nH]sc12

MIC (Pseudomonas aeruginosa): 16 µg/mL (≈ 44.9 µM) | MIC (Klebsiella pneumoniae): 64 µg/mL (≈ 180 µM) | MIC (Staphylococcus aureus): 8 µg/mL (≈ 22.4 µM) | MIC (Escherichia coli [1]): 0.5 µg/mL (≈ 1.4 µM) | MIC (Acinetobacter baumannii): > 64 µg/mL | MIC (Escherichia coli [2]): 4 µg/mL (≈ 11.2 µM)
Compound: CCc1c(-c2ccc(N3CCNCC3)cc2)[nH]c(=O)c2c(=O)[nH]sc12

MIC (Pseudomonas aeruginosa): 8 µg/mL (≈ 20.2 µM) | MIC (Klebsiella pneumoniae): 8 µg/mL (≈ 20.2 µM) | MIC (Staphylococcus aureus): 4 µg/mL (≈ 10.1 µM) | MIC (Escherichia coli [1]): 0.06 µg/mL (≈ 0.151 µM) | MIC (Acinetobacter baumannii): 8 µg/mL (≈ 20.2 µM) | MIC (Escherichia coli [2]): 0.5 µg/mL (≈ 1.26 µM)
Compound: CCc1c(-c2ccc(N3C[C@@H]4CCN(C)[C@@H]4C3)cc2)[nH]c(=O)c2c(=O)[nH]sc12

MIC (Pseudomonas aeruginosa): > 64 µg/mL | MIC (Klebsiella pneumoniae): > 64 µg/mL | MIC (Staphylococcus aureus): 64 µg/mL (≈ 166 µM) | MIC (Escherichia coli [1]): 8 µg/mL (≈ 20.8 µM) | MIC (Acinetobacter baumannii): > 64 µg/mL | MIC (Escherichia coli [2]): > 64 µg/mL
Compound: CCc1c(-c2cccc(N3CCC(CNC)C3)c2)[nH]c(=O)c2c(=O)[nH]sc12 (centres undefined)

The remaining lines, values behind:

Compound: CCc1c(-c2ccc(N3CC[C@H](N(C)C)C3)cc2)[nH]c(=O)c2c(=O)[nH]sc12
MIC (Pseudomonas aeruginosa): 1 µg/mL (≈ 2.6 µM) | MIC (Klebsiella pneumoniae): 4 µg/mL (≈ 10.4 µM) | MIC (Staphylococcus aureus): 0.5 µg/mL (≈ 1.3 µM) | MIC (Escherichia coli [1]): 0.001 µg/mL (≈ 0.0026 µM) | MIC (Acinetobacter baumannii): 1 µg/mL (≈ 2.6 µM) | MIC (Escherichia coli [2]): 0.015 µg/mL (≈ 0.039 µM)

Compound: CCc1c(-c2ccc(N3CC[C@@H](O)C3)cc2)[nH]c(=O)c2c(=O)[nH]sc12
MIC (Pseudomonas aeruginosa): 1 µg/mL (≈ 2.8 µM) | MIC (Klebsiella pneumoniae): 2 µg/mL (≈ 5.6 µM) | MIC (Staphylococcus aureus): 0.015 µg/mL (≈ 0.042 µM) | MIC (Escherichia coli [1]): 0.008 µg/mL (≈ 0.0224 µM) | MIC (Acinetobacter baumannii): 16 µg/mL (≈ 44.8 µM) | MIC (Escherichia coli [2]): 0.12 µg/mL (≈ 0.336 µM)

Compound: CCc1c(-c2ccc3c(cnn3C)c2)[nH]c(=O)c2c(=O)[nH]sc12
Selectivity ratio (Escherichia coli [3]): 8 | MIC (Escherichia coli [4]): 0.5 µg/mL (≈ 1.53 µM) | Selectivity ratio (Escherichia coli [5]): >128 | MIC (Escherichia coli [6]): 8 µg/mL (≈ 24.5 µM) | MIC (Pseudomonas aeruginosa): 4 µg/mL (≈ 12.3 µM) | MIC (Klebsiella pneumoniae): 16 µg/mL (≈ 49 µM) | MIC (Escherichia coli [7]): 16 µg/mL (≈ 49 µM) | Selectivity ratio (Escherichia coli [8]): 16 | Selectivity ratio (Escherichia coli [9]): 32 | MIC (Escherichia coli [10]): 16 µg/mL (≈ 49 µM) | MIC (Staphylococcus aureus): 0.12 µg/mL (≈ 0.368 µM) | Selectivity ratio (Escherichia coli [11]): 32 | MIC (Escherichia coli [1]): 0.004 µg/mL (≈ 0.0123 µM) | MIC (Escherichia coli [12]): 16 µg/mL (≈ 49 µM) | MIC (Acinetobacter baumannii): 2 µg/mL (≈ 6.13 µM) | Selectivity ratio (Escherichia coli [13]): 32 | MIC (Escherichia coli [14]): 16 µg/mL (≈ 49 µM) | MIC (Escherichia coli [2]): 0.5 µg/mL (≈ 1.53 µM) | MIC (Escherichia coli [15]): 16 µg/mL (≈ 49 µM) | MIC (Escherichia coli [16]): > 64 µg/mL | MIC (Escherichia coli [17]): 4 µg/mL (≈ 12.3 µM) | Selectivity ratio (Escherichia coli [18]): 32 | Selectivity ratio (Escherichia coli [19]): 32

Compound: CCc1c(-c2ccc(N3CCC(CNC)C3)cc2)[nH]c(=O)c2c(=O)[nH]sc12 (centres undefined)
MIC (Pseudomonas aeruginosa): 2 µg/mL (≈ 5.2 µM) | MIC (Klebsiella pneumoniae): 32 µg/mL (≈ 83.2 µM) | MIC (Staphylococcus aureus): 2 µg/mL (≈ 5.2 µM) | MIC (Escherichia coli [1]): 0.008 µg/mL (≈ 0.0208 µM) | MIC (Acinetobacter baumannii): > 128 µg/mL | MIC (Escherichia coli [2]): 1 µg/mL (≈ 2.6 µM)

Compound: CCc1c(-c2ccc(N3CCC(N(C)C)C3)cc2)[nH]c(=O)c2c(=O)[nH]sc12 (racemic)
Selectivity ratio (Escherichia coli [3]): 4 | MIC (Escherichia coli [4]): 0.5 µg/mL (≈ 1.3 µM) | Selectivity ratio (Escherichia coli [5]): 128 | MIC (Escherichia coli [6]): 4 µg/mL (≈ 10.4 µM) | MIC (Pseudomonas aeruginosa): 1 µg/mL (≈ 2.6 µM) | MIC (Klebsiella pneumoniae): 4 µg/mL (≈ 10.4 µM) | MIC (Escherichia coli [7]): 16 µg/mL (≈ 41.6 µM) | Selectivity ratio (Escherichia coli [8]): 8 | IC50 [20]: 20 µM | logD [21]: 1.4 | Selectivity ratio (Escherichia coli [9]): 32 | MIC (Escherichia coli [10]): 16 µg/mL (≈ 41.6 µM) | MIC (Staphylococcus aureus): 1 µg/mL (≈ 2.6 µM) | IC50 (HepG2): > 128 µg/mL | Selectivity ratio (Escherichia coli [11]): 32 | MIC (Escherichia coli [1]): 0.03 µg/mL (≈ 0.078 µM) | MIC (Escherichia coli [12]): 8 µg/mL (≈ 20.8 µM) | MIC (Acinetobacter baumannii): 2 µg/mL (≈ 5.2 µM) | inhibition at 100 µM (hERG (KCNH2)): 84% | Selectivity ratio (Escherichia coli [13]): 16 | MIC (Escherichia coli [14]): 16 µg/mL (≈ 41.6 µM) | MIC (Escherichia coli [2]): 0.25 µg/mL (≈ 0.65 µM) | MIC (Escherichia coli [15]): 16 µg/mL (≈ 41.6 µM) | MIC (Escherichia coli [16]): 64 µg/mL (≈ 166 µM) | MIC (Escherichia coli [17]): 2 µg/mL (≈ 5.2 µM) | Selectivity ratio (Escherichia coli [18]): 32 | Selectivity ratio (Escherichia coli [19]): 32
